In patent US20250051283A1, “THERAPEUTIC COMPOUNDS AND METHODS” (priority 2023, published 2025):
Where two headings read alike, the source gives them in different places.

Key:
EV-D68 2A^pro = EV-D68 2A^pro (Enterovirus D68, UniProt A0A097BW19); assay: FRET-based enzymatic assay of EV-D68 2Apro inhibition; type: biochemical; settings: for IC50: read-out: Enzymatic inhibitory activity IC50
Protocol: (§1) Protein expression and purification. EV-D68 2A^pro gene from strain US/KY/14-18953 was ordered from Genscript (Piscataway, NJ) in pET28b(+) vector with E. coli codon optimization. 2A^pro gene was subcloned into pE-SUMOstar vector according to the manufacturers protocol. Plasmid encoding WT-2A^pro was transformed into BL21(DE3) competent E. coli cells, and a single colony was picked and used to inoculate 10 mL of L.B. grown supplemented with 50 μg/mL kanamycin at 37° C. at 250 rpm. The 10 mL inoculant was added to 1 L of L.B. with 50 μg/mL kanamycin and grown to an OD600 of 0.8-1.0, cooled to 18° C., then induced using 0.5 mM IPTG. Induced cultures were incubated at 18° C. for an additional 24 h, then harvested and resuspended in lysis buffer (25 mM Tris (pH 7.5); 750 mM NaCl, 2 mM DTT with 0.5 mg/mL lysozyme, 0.5 mM PMSF and 0.02 mg/mL DNase I) and lysed with alternating sonication and French press cycles. The cell debris were removed by centrifugation at 12,000×g for 45 min […]. The supernatant was incubated with Ni-NTA resin for over 2 h at 4° C. on a rotator. The Ni-NTA resin was thoroughly washed with 50 mM imidazole in wash buffer (50 mM Tris (pH 7.5), 150 mM NaCl, and 2 mM DTT); for the SUMO-tagged protein, the protein was directly eluted with 300 mM imidazole; for the nontagged 2A^pro Ni-NTA resin was treated with SUMO Protease 1 to remove the SUMO tag, then 2A^pro was washed off from the column with 10 mM imidazole in wash buffer. The imidazole was removed via dialysis or 10 K molecular weight cut-off centrifugal concentrator spin column. The purity of the protein was confirmed with SDS-PAGE. The protein concentration was determined by classic BCA assay using bovine serum albumin as a standard. EV-D68 3C^pro in pET28b(+) vector was expressed as previously described^10.
(§2) Peptide synthesis. The FRET substrate of EV-D68 2A^pro, Dabcyl-KIRIVNT/GPGFGGE-Edans, was synthesized using the Fmoc solid phase synthesis strategy.
(§3) Enzymatic assays. The reaction buffer contains 50 mM Tris (pH7.0), 150 mM NaCl, 10% Glycerol, and 2 mM DTT, and the reaction was carried out at 30° C. in Cytation 5 imaging reader (Fisher Scientific) with EX360/40-EM460/40 filter. Reactions were monitored every 90 sec. […] The reaction was initiated by adding 20 μM of FRET substrate, and the reaction was monitored for 2 hours and initial velocity was calculated for the first 30 minutes via linear regression.

EV-D68 US/MO/14-18947 = assay: CPE assay (neutral red) with EV-D68 US/MO/14-18947 in R.D. cells; type: cell-based, Enterovirus D68
Protocol: Cell lines and viruses. Human rhabdomyosarcoma (R.D., ATCC, CCL-136) cells were maintained at 37° C. in a 5% CO2 atmosphere and cultured in Dulbecco's modified Eagle's medium (DMEM) supplemented with 10% fetal bovine serum (FBS) and 1% penicillin-streptomycin antibiotics. The following reagents were obtained through BEI Resources, NIAID, NIH: Human Enterovirus D68, US/MO/14-18949, NR-49130; Enterovirus D68, US/MO/14-18947, NR-49129; Enterovirus D68, US/IL/14-18952, NR-49131; Enterovirus D68, US/KY/14-18953, NR-49132; Enterovirus D68, US/IL/14-18956, NR-49133.
Antiviral assays. Cells for antiviral assays were seeded and grown overnight at 37° C. in a 5% CO2 atmosphere for ˜90% confluency the next day. For all infections, cells were washed with PBS containing magnesium and calcium and infected with virus diluted in DMEM with 2% FBS and 30 mM MgCl2. Viruses were incubated for at least 1 h at 33° C. in a 5% CO2 atmosphere, followed by the addition of compound as well as 1% penicillin-streptomycin. For CC50 measurements, the experiment was performed similarly but excluded viral infection. For cytopathic effect (CPE) assays, cells were stained with 66 µg/mL neutral red for 2 h and neutral red uptake was measured at absorbance 540 nm using a Multiskan FC Microplate Photometer (ThermoFisher Scientific). The EC50 and CC50 values were calculated from best-fit dose response curves using GraphPad Prism. For plaque reduction assays, an 1.2% avicel microcrystalline cellulose (FMC BioPolymer, Philadelphia, PA) overlay was used and cells were stained after 3 days as previously described^26.

[1] = biological target: T1, EV-D68 2A^pro (WT-2A^pro, strain US/KY/14-18953, expressed in E. coli BL21(DE3) from pE-SUMOstar vector) (enterovirus D68, UniProt A0A097BW19); assay: FRET-based enzymatic assay of EV-D68 2A^pro inhibition (FRET substrate Dabcyl-KIRIVNT/GPGFGGE-Edans); type: biochemical
T1 construct: E. coli-codon-optimised gene, pE-SUMOstar, His-SUMO tag (removed with SUMO protease for nontagged form), E. coli BL21(DE3), Ni-NTA; 7JRE is the C107A mutant
Protocol: (§4) FIG. 4. […] Key structural variations compared to telaprevir were highlighted in red. Enzymatic inhibitory activity IC50 value was determined in the FRET-based assay. Antiviral EC50 value was determined in the CPE assay with EV-D68 US/MO/14-18947 in R.D. cells. Cytotoxicity CC50 value was determined using the neutral red uptake method in R.D. cells. The results are the mean±standard deviation of two independent experiments with three repeats in each experiment.
as §4, with “5.” for “4.”, “Jun8861” for “telaprevir”
as §1, §2, §3

[2] = Enterovirus D, EVD68, RD, read-out: Antiviral EC50, CPE assay, EV-D68 US/MO/14-18947 in R.D. cells
[3] = CPE assay, EV-D68 US/MO/14-18947 in R.D. cells

IC50 (EV-D68 2A^pro) [nM]	Compound	enzymatic inhibition, in words, relative to the named comparator (EV-D68 2A^pro)	antiviral activity, in words, relative to the named comparator (EV-D68 US/MO/14-18947; [3])	further results
	CCC[C@H](NC(=O)[C@@H]1[C@H]2CCC[C@H]2CN1C(=O)[C@@H](NC(=O)NC12CC3CC(CC(C3)C1)C2)C(C)(C)C)C(=O)C(=O)NC1CC1 [Jun1023, (1S)-2-((S)-2-(3-((3R,5R,7R)-adamantan-1-yl)ureido)-3,3-dimethylbutanoyl)-N—((S)-1-(cyclopropylamino)-1,2-dioxohexan-3-yl)octahydrocyclopenta[c]pyrrole-1-carboxamide]	reduced enzymatic inhibition		EC50 (EV-D68 US/MO/14-18947; CPE assay, EV-D68 US/MO/14-18947 in R.D. cells, read-out: Antiviral EC50): 700 nM
4350	CCC[C@H](NC(=O)[C@@H]1[C@H]2CCC[C@H]2CN1C(=O)OCc1ccccc1)C(=O)C(=O)NC1CC1 [Jun7424, Benzyl (1S,3aR,6aS)-1-(((S)-1-(cyclopropylamino)-1,2-dioxohexan-3-yl)carbamoyl)hexahydrocyclopenta[c]pyrrole-2(1H)-carboxylate]			
940	CCC[C@H](NC(=O)[C@@H]1[C@H]2CCC[C@H]2CN1C(=O)[C@@H](NC(C)=O)C(C)(C)C)C(=O)C(=O)NC1CC1 [Jun8862, (1S,3aR,6aS)-2-((S)-2-acetamido-3,3-dimethylbutanoyl)-N—((S)-1-(cyclopropylamino)-1,2-dioxohexan-3-yl)octahydrocyclopenta[c]pyrrole-1-carboxamide]			
1160	CCC[C@H](NC(=O)[C@@H]1[C@H]2CCC[C@H]2CN1C(=O)[C@@H](NC(=O)NC(C)(C)C)C(C)(C)C)C(=O)C(=O)NC1CC1 [Jun9475, (1S,3aR,6aS)-2-((S)-2-(3-(tert-butyl)ureido)-3,3-dimethylbutanoyl)-N—((S)-1-(cyclopropylamino)-1,2-dioxohexan-3-yl)octahydrocyclopenta[c]pyrrole-1-carboxamide]			
	CC(C)C[C@H](NC(=O)[C@@H]1[C@H]2CCC[C@H]2CN1C(=O)[C@@H](NC(=O)CC12CC3CC(CC(C3)C1)C2)C(C)(C)C)C(=O)C(=O)NC1CC1 [Jun11389, (1S,3aR,6aS)-2-((S)-2-(2-((3S,5S,7S)-adamantan-1-yl)acetamido)-3,3-dimethyl-butanoyl)-N—((S)-1-(cyclopropylamino)-5-methyl-1,2-dioxohexan-3-yl)octahydro-cyclopenta[c]pyrrole-1-carboxamide]		failed to improve the antiviral potency compared to Jun8861	IC50 [1]: 260 ± 50 nM
	CC(C)[C@H](NC(=O)[C@@H]1[C@H]2CCC[C@H]2CN1C(=O)[C@@H](NC(=O)CC12CC3CC(CC(C3)C1)C2)C(C)(C)C)C(=O)C(=O)NC1CC1 [Jun11718, (1S,3aR,6aS)-2-((S)-2-(2-((3S,5S,7S)-adamantan-1-yl)acetamido)-3,3-dimethylbutanoyl)-N—((S)-1-(cyclopropylamino)-4-methyl-1,2-dioxopentan-3-yl)octahydrocyclopenta[c]pyrrole-1-carboxamide]	comparable enzymatic inhibition and antiviral activity as Jun8861	comparable enzymatic inhibition and antiviral activity as Jun8861	
	CC(C)(C)[C@H](NC(=O)CC12CC3CC(CC(C3)C1)C2)C(=O)N1C[C@@H]2CCC[C@@H]2[C@H]1C(=O)N[C@@H](CC1CC1)C(=O)C(=O)NC1CC1 [Jun11761, (1S,3aR,6aS)-2-((S)-2-(2-((3S,5S,7S)-adamantan-1-yl)acetamido)-3,3-dimethylbutanoyl)-N—((S)-1-cyclopropyl-4-(cyclopropylamino)-3,4-dioxobutan-2-yl)octahydrocyclopenta[c]pyrrole-1-carboxamide]		failed to improve the antiviral potency compared to Jun8861	IC50 [1]: 140 ± 10 nM
	CC(C)(C)[C@H](NC(=O)CC12CC3CC(CC(C3)C1)C2)C(=O)N1C[C@@H]2CCC[C@@H]2[C@H]1C(=O)N[C@@H](Cc1c[nH]c2ccccc12)C(=O)C(=O)NC1CC1 [Jun11862, (1S,3aR,6aS)-2-((S)-2-(2-((3S,5S,7S)-adamantan-1-yl)acetamido)-3,3-dimethylbutanoyl)-N—((S)-4-(cyclopropylamino)-1-(1H-indol-3-yl)-3,4-dioxobutan-2-yl)octahydrocyclopenta[c]pyrrole-1-carboxamide]	comparable enzymatic inhibition and antiviral activity as Jun11385	comparable enzymatic inhibition and antiviral activity as Jun11385	
	(1S)-2-((S)-2-(2-((3S,5S,7S)-adamantan-1-yl)acetamido)-3,3-dimethylbutanoyl)-N-((2S)-4-(cyclopropylamino)-3-hydroxy-4-oxo-1-(thiophen-3-yl)butan-2 yl)octahydrocyclopenta[c]pyrrole-1-carboxamide [Jun11818]	comparable enzymatic inhibition and antiviral activity as Jun11385	comparable enzymatic inhibition and antiviral activity as Jun11385	

Compound	IC50 (EV-D68 2A^pro) [nM]	enzymatic inhibition, in words, relative to the named comparator (EV-D68 2A^pro)	antiviral activity, in words, relative to the named comparator (EV-D68 US/MO/14-18947; [3])	further results
CCC[C@H](NC(=O)[C@@H]1[C@H]2CCC[C@H]2CN1C(=O)[C@@H](NC(=O)CC1CCCC1)C(C)(C)C)C(=O)C(=O)NC1CC1 [Jun971, (1S,3aR,6aS)-2-((S)-2-(2-cyclopentylacetamido)-3,3-dimethylbutanoyl)-N—((S)-1-(cyclopropylamino)-1,2-dioxohexan-3-yl)octahydrocyclopenta[c]pyrrole-1-carboxamide]	80 to 140			EC50 (EV-D68 US/MO/14-18947; [2]): 160 to 750 nM; IC50 [1]: 100 ± 10 nM
CC(C)(C)C(NC(=O)CC12CC3CC(CC(C3)C1)C2)C(=O)N1CC2CCCC2C1C(=O)NC(Cc1ccc(F)cc1)C(=O)C(=O)NC1CC1 [Jun11763, (1S,3aR,6aS)-2-((S)-2-(2-((3S,5S,7S)-adamantan-1-yl)acetamido)-3,3-dimethylbutanoyl)-N—((S)-4-(cyclopropylamino)-1-(4-fluorophenyl)-3,4-dioxobutan-2-yl)octahydrocyclo-penta[c]pyrrole-1-carboxamide]	150			EC50 (EV-D68 US/MO/14-18947; [2]): 190 nM
